Assay results from patent publication US11166958B2, “4-pyrazin-2-ylmethyl-morpholine derivatives and the use thereof as medicament” (Boehringer Ingelheim International GmbH, priority 2018, dated 2021).

How the values were obtained:
[1] = molecular target: NMDA NR1/NR2B receptor (Homo sapiens (Human), UniProt Q13224); assay: In vitro NMDA NR1/NR2B cell assay (FLIPR, intracellular calcium induced by glycine/glutamate); format: cell-based; details: HEK293 NR1/NR2B, 20 μM glycine / 1 μM glutamate, read-out: In vitro NR2B affinity, IC50
Chain of NMDA NR1/NR2B receptor (Q13224 27-1484, other chains not shown): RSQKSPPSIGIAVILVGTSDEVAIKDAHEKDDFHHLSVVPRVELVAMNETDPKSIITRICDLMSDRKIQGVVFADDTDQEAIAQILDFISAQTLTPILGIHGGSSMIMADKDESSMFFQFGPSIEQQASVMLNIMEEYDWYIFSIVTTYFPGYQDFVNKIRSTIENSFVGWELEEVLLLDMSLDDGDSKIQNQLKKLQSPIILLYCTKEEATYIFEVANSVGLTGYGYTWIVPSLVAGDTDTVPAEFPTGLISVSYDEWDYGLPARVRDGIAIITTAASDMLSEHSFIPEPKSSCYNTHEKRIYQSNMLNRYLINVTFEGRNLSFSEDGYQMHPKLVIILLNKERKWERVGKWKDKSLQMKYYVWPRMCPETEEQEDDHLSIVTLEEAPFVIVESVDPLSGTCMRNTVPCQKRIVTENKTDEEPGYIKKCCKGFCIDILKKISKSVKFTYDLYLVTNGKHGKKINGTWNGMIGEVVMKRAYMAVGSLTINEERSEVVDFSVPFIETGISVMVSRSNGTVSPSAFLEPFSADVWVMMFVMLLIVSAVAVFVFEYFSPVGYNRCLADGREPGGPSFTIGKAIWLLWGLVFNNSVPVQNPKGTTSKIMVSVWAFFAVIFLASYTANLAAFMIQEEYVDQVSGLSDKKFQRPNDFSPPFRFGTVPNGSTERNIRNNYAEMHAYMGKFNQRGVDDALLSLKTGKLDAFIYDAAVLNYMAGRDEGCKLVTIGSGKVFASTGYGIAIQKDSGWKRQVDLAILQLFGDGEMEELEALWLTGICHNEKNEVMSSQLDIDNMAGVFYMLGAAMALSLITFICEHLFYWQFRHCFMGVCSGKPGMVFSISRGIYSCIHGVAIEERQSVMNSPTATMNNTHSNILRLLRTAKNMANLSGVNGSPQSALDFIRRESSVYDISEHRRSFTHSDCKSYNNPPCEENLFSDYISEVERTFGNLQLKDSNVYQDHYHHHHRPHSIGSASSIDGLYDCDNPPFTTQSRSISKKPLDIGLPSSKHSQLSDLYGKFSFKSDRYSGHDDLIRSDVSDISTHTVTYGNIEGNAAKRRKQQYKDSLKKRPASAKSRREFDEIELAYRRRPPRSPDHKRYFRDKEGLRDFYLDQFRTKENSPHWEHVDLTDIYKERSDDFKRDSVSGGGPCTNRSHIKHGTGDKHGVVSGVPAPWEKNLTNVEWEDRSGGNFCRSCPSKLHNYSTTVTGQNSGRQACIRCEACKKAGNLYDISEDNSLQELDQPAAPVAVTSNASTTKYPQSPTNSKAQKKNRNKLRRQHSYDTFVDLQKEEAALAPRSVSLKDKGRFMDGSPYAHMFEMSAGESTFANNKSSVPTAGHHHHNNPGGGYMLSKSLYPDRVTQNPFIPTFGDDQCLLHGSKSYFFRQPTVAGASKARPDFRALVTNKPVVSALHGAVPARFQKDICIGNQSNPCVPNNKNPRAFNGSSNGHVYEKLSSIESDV
Procedure: A human HEK293 cell line with tetracyclin-inducible expression of NMDA NR1/NR2B receptor was used as a test system for compound efficacy and potency. The cell line was purchased from ChanTest, Catalog #CT6121. Compound activity was determined by measuring the effect of compounds on intracellular calcium concentration induced by glycine/glutamate agonism in a FLIPRtetra system (Molecular Devices).
The cells were obtained as frozen cells in cryo-vials and stored until use at −150° C. Cells were grown in culture medium (DMEM/F12, 10% FBS, 5 μg/mL Blasticidin, 150 μg/mL Zeozin, 500 μg/mL Geneticin). […] For sub-culturing the cells were detached from flasks by Versene. For the assay, cells were detached, washed twice with induction medium (DMEM/F12 without glutamine, 10% FBS, 2 μg/mL Tetracycline, 2 mM Ketamine) and seeded to 384 well pure coat amine plates (Becton Dickinson, 50000 cells per well in 50 μl) 48 h prior to assay in induction medium.
The test compounds were dissolved in 100% DMSO at a concentration of 10 mM and in a first step diluted in DMSO to a concentration of 5 mM, followed by serial dilution steps in 100% DMSO. Dilution factor and number of dilution steps may vary according to needs. Typically 8 different concentrations by 1:5 dilutions were prepared in duplicate, further intermediate dilutions (1:37.5) of the substances were carried out with aqueous assay buffer (137 mM NaCl, 4 mM KCl, 1.8 mM CaCl2), 10 mM HEPES, 10 mM Glucose, pH 7.4) resulting in a compound concentration 3 times above the final test concentration and DMSO at 2.7% resulting in 0.9% final DMSO concentration in the assay.
At the assay day cells were washed 3× with assay buffer (as described above), 10 μL buffer remained in the wells after washing. 10 μL Ca kit loading buffer (AAT Bioquest; prepared from the kit containing the following components: Component A: Fluo-8 NW dissolved in 200 μL DMSO and 20 μl of this solution are mixed with 10 ml buffer prepared out of component B and C, Component B: 10× Pluronic® F127 Plus diluted 1:10 in component C, Component C: HHBS (Hanks with 20 mM Hepes) was added to the cells and the plates were incubated with lid for 60 minutes at room temperature. 20 μl assay buffer containing 60 μM glycine (20 μM final) and 3 μM glutamate (1 μM final) was added to column 1-23, column 24 got assay buffer without glycine/glutamate to serve as negative unstimulated control. Fluorescence (indicating the calcium influx as a result of the NR1/NR2B ion channel activation) was read on the FLIPRtetra device for 60 seconds to monitor the glutamate induced effects. After 2 minutes 20 μL of compound dilution prepared as described above or controls (row 1-22) in assay buffer were carefully added to the wells. […] The average of 2 measurements at 5 minutes and 5 min 10 seconds after compound addition is calculated and further used for IC50 calculations. Each assay microtiter compound dilution plate contained wells (in column 23 or 24) with DMSO controls instead of compound as controls for glycine/glutamate induced fluorescence (high controls) and wells with 1 μM of a reference NR2B NAM as low controls (Compound 22; reference: Layton, Mark E et al, ACS Chemical Neuroscience 2011, 2(7), 352-362).
The output file of the reader contains the well number and measured average fluorescence units. For data evaluation and calculation, the measurement of the low control was set as 0% control and the measurement of the high control was set as 100% control. The IC50 values were calculated using the standard 4 parameter logistic regression formula. Calculation: [y=(a−d)/(1+(x/c)^b)+d], a=low value, d=high value; x=conc M; c=IC50 M; b=slope.

[2] = molecular target: Nav1.6 channel (Homo sapiens (Human), UniProt Q9UQD0); assay: Nav1.6 inhibition, IonWorks Quattro electrophysiology; format: cell-based
Chain of Nav1.6 channel (Q9UQD0 whole entry): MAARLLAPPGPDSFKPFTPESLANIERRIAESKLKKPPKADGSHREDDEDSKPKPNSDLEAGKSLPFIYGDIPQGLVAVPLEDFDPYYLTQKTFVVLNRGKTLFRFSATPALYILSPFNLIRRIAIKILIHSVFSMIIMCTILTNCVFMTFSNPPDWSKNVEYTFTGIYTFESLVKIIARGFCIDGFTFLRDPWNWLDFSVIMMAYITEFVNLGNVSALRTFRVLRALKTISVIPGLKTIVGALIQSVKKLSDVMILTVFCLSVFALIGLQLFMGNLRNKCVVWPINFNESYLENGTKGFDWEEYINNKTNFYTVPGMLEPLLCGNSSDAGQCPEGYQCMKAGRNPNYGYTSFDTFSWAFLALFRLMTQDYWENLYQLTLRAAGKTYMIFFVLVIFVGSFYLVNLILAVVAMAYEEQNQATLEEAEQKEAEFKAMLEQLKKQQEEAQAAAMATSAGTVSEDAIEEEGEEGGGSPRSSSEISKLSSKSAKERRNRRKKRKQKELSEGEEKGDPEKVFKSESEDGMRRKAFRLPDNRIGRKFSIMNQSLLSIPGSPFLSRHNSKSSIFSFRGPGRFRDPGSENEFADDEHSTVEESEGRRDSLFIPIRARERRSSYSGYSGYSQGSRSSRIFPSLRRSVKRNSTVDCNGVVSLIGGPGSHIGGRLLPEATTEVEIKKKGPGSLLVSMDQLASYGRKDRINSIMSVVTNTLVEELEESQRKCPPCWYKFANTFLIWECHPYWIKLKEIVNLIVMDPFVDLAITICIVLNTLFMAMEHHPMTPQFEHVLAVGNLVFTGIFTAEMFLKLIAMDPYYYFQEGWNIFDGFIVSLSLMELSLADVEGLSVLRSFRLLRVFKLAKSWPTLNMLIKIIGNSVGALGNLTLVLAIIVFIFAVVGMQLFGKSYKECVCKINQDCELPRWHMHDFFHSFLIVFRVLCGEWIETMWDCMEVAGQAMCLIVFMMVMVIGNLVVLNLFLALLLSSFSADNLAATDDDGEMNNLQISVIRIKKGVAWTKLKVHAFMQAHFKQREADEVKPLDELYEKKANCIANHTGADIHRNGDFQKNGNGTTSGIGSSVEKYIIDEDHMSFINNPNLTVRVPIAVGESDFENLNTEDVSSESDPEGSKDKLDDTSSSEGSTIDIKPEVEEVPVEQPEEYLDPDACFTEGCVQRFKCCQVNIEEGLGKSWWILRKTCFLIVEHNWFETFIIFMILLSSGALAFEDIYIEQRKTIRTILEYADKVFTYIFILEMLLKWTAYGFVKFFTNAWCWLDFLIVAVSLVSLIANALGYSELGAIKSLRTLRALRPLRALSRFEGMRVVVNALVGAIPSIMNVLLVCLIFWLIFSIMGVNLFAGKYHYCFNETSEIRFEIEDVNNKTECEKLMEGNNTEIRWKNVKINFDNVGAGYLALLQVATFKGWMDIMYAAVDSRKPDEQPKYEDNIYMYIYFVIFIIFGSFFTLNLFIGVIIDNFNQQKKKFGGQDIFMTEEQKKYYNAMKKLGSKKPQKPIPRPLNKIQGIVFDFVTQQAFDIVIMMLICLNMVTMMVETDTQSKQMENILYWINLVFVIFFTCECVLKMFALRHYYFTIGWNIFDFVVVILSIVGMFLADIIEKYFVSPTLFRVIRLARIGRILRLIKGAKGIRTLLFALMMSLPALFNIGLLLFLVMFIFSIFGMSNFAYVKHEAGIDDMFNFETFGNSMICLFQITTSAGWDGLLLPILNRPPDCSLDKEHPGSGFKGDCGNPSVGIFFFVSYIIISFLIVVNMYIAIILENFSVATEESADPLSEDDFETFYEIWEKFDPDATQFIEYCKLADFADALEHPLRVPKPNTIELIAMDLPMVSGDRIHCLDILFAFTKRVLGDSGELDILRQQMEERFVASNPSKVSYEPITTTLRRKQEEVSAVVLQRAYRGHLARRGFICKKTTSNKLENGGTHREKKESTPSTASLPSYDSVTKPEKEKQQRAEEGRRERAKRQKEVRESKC
Procedure: IonWorks Quattro electrophysiological platform
The compounds were prepared in DMSO at 300× the final assay concentrations of 1 and 5 μM.
The 300× DMSO stock solutions were transferred into assay plates where 2 μl per well of each 300× stock solution were placed. All assay plates were stored at −80° C. until the day of assay.
On the day of the assay, the appropriate assay plate was thawed at room temperature, centrifuged, and 198 μl of external recording solution was added and mixed thoroughly. This provided a 1:100 dilution. A further 1:3 dilution occurred upon addition to the cells in the IonWorks Quattro electrophysiological platform, giving a 1:300 dilution in total. On each assay plate, at least 8 wells were reserved for vehicle control (0.3% DMSO) and at least 8 wells for each positive control specific to the cell line tested. The positive controls were tested at a maximal blocking and an approximate IC50 concentration. As positive control Lidocaine at concentrations of 30 and 1000 μM was used.
The solutions for recording Nav1.6 currents were as follows:
Amphotericin B was used to obtain electrical access to the cell interior at a final concentration of 200 μg/ml in internal recording solution.
State-dependent inhibition: Sodium channels when held at depolarized potential or long test pulse, the channels open and inactivate and then stay inactivated until the membrane potential is stepped back to hyperpolarized potentials, when the inactivated channels recover from inactivation into closed state.
Cells were held at −120 mV. In order to completely inactivate the sodium channels (pulse 1), the cells were pulsed to +0 mV for 2500 ms and stepped back to −120 mV for 10 ms (to completely recover from inactivation, however channels that had drugs bound to them will not recover from inactivation) before stepping to +0 mV for 20 ms (pulse 2).
Assay Control Results Both the positive and vehicle control data associated with each cell line assayed are shown below as an example. The mean is shown for each positive and negative control as solid symbol with the total number of individual well replicates given next to the solid symbol. In addition, the individual data of each well are shown on the graph as open symbols so that the variation about the mean value can be readily assessed.
Shown below are the assay controls for the Nav1.6 IonWorks Quattro assay.
Tables 3 and 4 show the normalized percentage inhibition of Nav1.6 channel. […] (see also the figure Assay Control Results above).

IC50 [1] [µM] | SMILES | other results
0.644 | CNC(=O)[C@@H]1CN(Cc2cnc(Oc3ccccc3)cn2)CCO1 [Example 34] | –
0.197 | CNC(=O)[C@@H]1CN(Cc2cnc(Oc3c(F)cccc3F)cn2)CCO1 [Example 35] | –
0.542 | CNC(=O)[C@@H]1CN(Cc2cnc(Oc3c(C)cccc3F)cn2)CCO1 [Example 36] | –
– | CCN(CC)CC(=O)Nc1c(C)cccc1C [Lidocaine, reference compound] | inhibition at 1000 µM ([2]; read-out: maximum inhibition at P1 (not normalized)): 46.4 to 47.2%; inhibition of evoked Nav1.6 currents ([2]; reference compound, FIG. 2): inhibited evoked currents in a concentration and use dependent manner
– | CCCCNc1ccc(C(=O)OCCN(C)C)cc1 [Tetracaine, reference compound] | state-dependent inhibition of Nav1.6 ([2]; FIG. 1): much stronger at depolarized potentials than at hyperpolarized potential
